The subject of this test is normal rats. The test can be described thus: Novel object recognition (NOR) task. The test is classed as in vivo, rat. Conditions: for Duration of Effect, NOR (time after dosing): after 3rd administration; for Minimum Effective Dose (MED), NOR: oral, rats, follow-up study FIG. 2. On the procedure: Memory was assessed by using the three-trial novel object recognition test. On the first day (exploratory trial), rats were allowed to explore an open arena (44.5×44.5×30.5 cm) for 6 min. On the second day (acquisition trial), rats were allowed to explore the same arena in the presence of two identical objects (both object A) for 3 minutes. On the third day (retention or recall trial), performance was evaluated by allowing the same animal to re-explore the arena for 3 minutes in the presence of two different objects: the familiar object A and a novel object B. An inter-trial interval of 24 hours was imposed between the three NOR trials. Recognition memory was assessed by comparing the time spent exploring a novel (object B) versus a familiar (object A) object during the recall trial. Recognition index was assessed for each animal and expressed as a ratio ((time B/time A+time B)×100).

On to `O=C(N[C@@H]1C2CCN(CC2)[C@H]1Cc1cccnc1)c1cc(F)cc(F)c1` [Compound A], for which the “NOR effect after single oral administration (recall only session)” value (0.28 μmol/kg oral on day 3 only) is reported as “pro-cognitive effects”. For the same compound, the Recognition index worked out at 68±4% (0.28 μmol/kg oral, 0.5 h after dosing, FIG. 3); 71±2% (0.28 μmol/kg oral, 2 h after dosing, FIG. 3); 62±2% (0.28 μmol/kg oral, 6 h after dosing, FIG. 3); 74±3% (0.28 μmol/kg oral, 24 h after acquisition trial, FIG. 1, vehicle 54±1%); 59±2% (0.84 μmol/kg oral, 0.5 h after dosing, FIG. 4); 63±2% (0.84 μmol/kg oral, 2 h after dosing, FIG. 4). Moreover, the Recognition index reads like this: (0.84 μmol/kg oral, 6 h after dosing, FIG. 4) 68±3%; (0.84 μmol/kg oral, 18 h after dosing, FIG. 4) 68±3%; (0.84 μmol/kg oral, 24 h after acquisition trial, FIG. 1, vehicle 54±1%) 70±4%. For the same compound, the “Duration of Effect, NOR (time after dosing)” value is “Duration 6 h (@ 0.1 mg/kg)” (0.1 mg/kg (0.28 μmol/kg) oral, FIG. 3, listed as (2S,3R)-N-2-((3-pyridinyl)methyl)-1-azabicyclo[2.2.2]oct-3-yl)-3,5-difluorobenza); “Duration 18 h (@ 0.3 mg/kg)” (0.3 mg/kg (0.84 μmol/kg) oral, FIG. 4, listed as (2S,3R)-N-2-((3-pyridinyl)methyl)-1-azabicyclo[2.2.2]oct-3-yl)-3,5-difluorobenza); at most 18 h (0.3 mg/kg (0.84 μmol/kg) oral, FIG. 4, listed as Formula I). Also, the “Doses with statistically significant effect in NOR” value is at least 0.1 mg/kg (NOR vs. dose, FIG. 1) and at least 0.03 mg/kg (minimum effective dose study, FIG. 2). Also, the “Minimum Effective Dose (MED), NOR” value by setting is: (listed as (2S,3R)-N-2-((3-pyridinyl)methyl)-1-azabicyclo[2.2.2]oct-3-yl)-3,5-difluorobenza) “MED = 0.084 μmol/kg”; (listed as (2S,3R)—N-2-((3-pyridinyl)methyl)-1-azabicyclo[2.2.2]oct-3-yl)-3,5-difluorobenza) 0.084 µmol/kg.

The record behind these values is patent US9173876B2, “Preparation and therapeutic applications of (2S,3R)-N-2-((3-pyridinyl)methyl)-1-azabicyclo[2.2.2]oct-3-yl)-3,5-difluorobenzamide” (Targacept, Inc., priority 2009, dated 2015).
